Key:
[1] = molecular target: T1, Pasteurella multocida PmST1 mutant M144D of SEQ ID NO: 13 (M120D of Δ24PmST1, SEQ ID NO: 3) (Pasteurella multocida, UniProt Q15KI8, M144D); assay: α2-3-sialyltransferase activity, LacβMU as acceptor; assay type: biochemical; details: apparent, donor, LacβMU 1 mM, Tris-HCl pH 8.5, 37° C.
Experimental: (§1) Site-directed mutagenesis, expression and purification of PmST1 mutants. Site-directed mutagenesis was performed using the QuikChange multi-site-directed mutagenesis kit from Stratagene according to the manufacturer's protocol. The primers used were 5′-[…]-3′ (SEQ ID NO:35) for M144D; 5′-[…]a[…] -3′ (SEQ ID NO:36) for M144H; 5′-[…]-3′ (SEQ ID NO:37) for A35D; and 5′-[…]-3′ (SEQ ID NO:38) for A35H. The expression and purification of the mutants were performed as previously described for the WT PmST1 .
(§2) Kinetics of the α2-3-sialyltransferase activity of PmST1 mutants by HPLC analysis. With LacβMU as the acceptor substrate, the reactions were performed in duplicate at 37° C. for 10 min (M144D) or 4 min (M144H) in a reaction mixture (10 μL) containing Tris-HCl (100 mM, pH 8.5), an enzyme (5 μg mL^−1), and different concentrations (0.2, 0.5, 1.0, 2.0, and 5.0 mM) of LacβMU with a fixed concentration (1 mM) of CMP-Neu5Ac or different concentrations (0.2, 0.5, 1.0, 2.0, 5.0, and 10.0 mM) of CMP-Neu5Ac with a fixed concentration (1 mM) of LacβMU. With Le^xβMU as the acceptor substrate, the reactions were carried out in duplicate at 37° C. for 9 min (M144D) or 10 min (M144H) in a reaction mixture (10 μL) containing CAPSO (100 mM, pH 9.5), an enzyme (M144D, 39 μg mL^−1 or M144H, 5 μg mL^−), and various concentrations of Le^xβMU (1.0, 5.0, 10.0, 15.0, 25.0, and 35.0 mM) with a fixed concentration (1 mM) of CMP-Neu5Ac or various concentrations (0.2, 0.5, 1.0, 2.0, 5.0, 10.0, 20.0, and 40.0 mM) of CMP-Neu5Ac with a fixed concentration (1 mM) of Le^xβMU. Reactions were stopped by adding 10 μL of pre-chilled ethanol. The mixtures were incubated on ice for 30 min and centrifuged at 13,000 rpm for 5 min. The supernatants were diluted with 25% acetonitrile and kept on ice until aliquots of 8 μL were injected and analyzed by the Shimadzu LC-6AD system equipped with a membrane on-line degasser, a temperature control unit, and a fluorescence detector (Shimadzu RF-10AXL). A reverse-phase Premier C18 column (250×4.6 mm i.d., 5 μm particle size, Shimadzu) protected with a C18 guard column cartridge was used. The mobile phase was 25% acetonitrile. The fluorophore (MU)-labeled compounds were detected by excitation at 325 nm and emission at 372 nm. The apparent kinetic parameters were obtained by fitting the experimental data (the average values of duplicate assay results) into the Michaelis-Menten equation using Grafit 5.0.

[2] = molecular target: T2, Pasteurella multocida PmST1 mutant M144H of SEQ ID NO: 13 (M120H of Δ24PmST1, SEQ ID NO: 5) (Pasteurella multocida, UniProt Q15KI8, M144H); assay: as above; assay type: biochemical; details: apparent, donor, LacβMU 1 mM, Tris-HCl pH 8.5, 37° C.
Experimental: as §1, §2

[3] = molecular target: T1, Pasteurella multocida PmST1 mutant M144D of SEQ ID NO: 13 (M120D of Δ24PmST1, SEQ ID NO: 3); assay: CMP-Neu5Ac (donor) hydrolysis activity, capillary electrophoresis; assay type: biochemical; details: apparent, Tris-HCl pH 8.5, 37° C., 15 min
Experimental: as §1
(§3) Kinetics of the donor hydrolysis activity of PmST1 and mutants by capillary electrophoresis analysis. […] The reactions were stopped by adding 10 μL of pre-chilled ethanol. The mixtures were incubated on ice for 30 min and centrifuged at 13,000 rpm for 5 min. The supernatants were diluted with borate buffer (25 mM, pH 9.5) and aliquotes of 5 μL each were injected to a Beckman Coulter P/ACE™ MDQ Capillary Electrophoresis system equipped with a capillary (60 cm×75 μm i.d.) and monitored at 254 nm. The apparent kinetic parameters were obtained by fitting the experimental data (the average values of duplicate assay results) into the Michaelis-Menten equation using Grafit 5.0.

[4] = molecular target: T2, Pasteurella multocida PmST1 mutant M144H of SEQ ID NO: 13 (M120H of Δ24PmST1, SEQ ID NO: 5); assay: as above; assay type: biochemical; details: apparent, Tris-HCl pH 8.5, 37° C., 15 min
Experimental: as §1, §3

[5] = molecular target: Pasteurella multocida α2-3-sialyltransferase 1 (PmST1), wild type (WT), SEQ ID NO: 13 (Pasteurella multocida, UniProt Q15KI8); details: apparent, donor, with LacβMU, read-out: Km for CMP-Neu5Ac; cited from earlier work
[6] = molecular target: Pasteurella multocida PmST1 mutant D141A (Pasteurella multocida, UniProt Q15KI8, D141A); assay: CMP-Neu5Ac (donor) hydrolysis activity, capillary electrophoresis; details: apparent, Tris-HCl pH 8.5, 37° C., 40 min
[7] = molecular target: Pasteurella multocida PmST1 mutant H311A (Pasteurella multocida, UniProt Q15KI8, H311A); assay: as above; details: apparent, Tris-HCl pH 8.5, 37° C., 20 min

Structure (SMILES): CC(=O)N[C@H]1[C@H]([C@H](O)[C@H](O)CO)O[C@](OP(=O)(O)OC[C@H]2O[C@@H](n3ccc(N)nc3=O)[C@H](O)[C@@H]2O)(C(=O)O)C[C@@H]1O [CMP-Neu5Ac]
- kcat (CMP-Neu5Ac) [1]: 1.9 ± 0.1 s⁻¹
- kcat (CMP-Neu5Ac) [2]: 21 ± 1 s⁻¹
- kcat [3]: 6.5 ± 0.1 s⁻¹
- kcat [4]: 71 ± 6 s⁻¹
- Km [5]: 440 µM
- kcat [6]: (2.5 ± 0.1) × 10^−2 s^−1
- kcat [7]: 2.1 ± 0.1 s⁻¹

Reference: patent publication US9255257B2, “PmST1 mutants for chemoenzymatic synthesis of sialyl lewis X compounds” (THE REGENTS OF THE UNIVERSITY OF CALIFORNIA, priority 2011, dated 2016)
